Assay results as given in US20250019378A1, “PYRROLE[2,3-B]PYRIDINE DERIVATIVES AS TYRO3 INHIBITORS” (HALIA THERAPEUTICS, INC., priority 2021, published 2025).

Target: recombinant human Tyro3 (Homo sapiens (Human), UniProt Q06418)
Experiment: Tyro3 Enzymatic Assay
Format: biochemical
Conditions: radiometric [32P]-ATP kinase assay, Poly(Glu, Tyr) substrate, 2 nM enzyme
Experimental: Poly(Glu, Tyr) sodium salt (Glu:Tyr (4:1), quality level 200, molecular weight 5,000-20,000, obtained from Sigma Aldrich, catalogue #P7244, assay concentration 0.20 mg/mL) and recombinant human Tyro3 (obtained from ThermoFisher Scientific, catalogue #PV3828, assay concentration 2 nM) were mixed in assay buffer (20 mM Hepes pH 7.5, 10 mM MgCl2, […] EGTA, 0.02% Brij35, 0.02 mg/ml BSA, 0.1 mM Na3VO4, 2 mM DTT, 1% DMSO, with added MnCl2 at a final concentration of 2 mM). Compounds of interest (in DMSO, serial 3-fold dilution from 10 μM to 0.5 nM) or control (1% DMSO) were dispensed into the kinase reaction mixture by Acoustic technology (Echo550; nanoliter range). After incubation at room temperature for 20 minutes, the kinase reaction was initiated by addition of [^32P]-ATP (Specific activity 10 μCi/μL) and the mixture was incubated at room temperature for 2 hours. The reaction was then stopped by spotting the reaction mixture on strips of phosphocellulose P81 paper. Following washing, the radioactivity of the P81 paper was measured and kinase activity data were expressed as the percent remaining kinase activity in test samples compared to vehicle (dimethyl sulfoxide) reactions. IC50 values and curve fits were obtained using Prism (GraphPad Software).

Chain of recombinant human Tyro3 (Q06418 41-890): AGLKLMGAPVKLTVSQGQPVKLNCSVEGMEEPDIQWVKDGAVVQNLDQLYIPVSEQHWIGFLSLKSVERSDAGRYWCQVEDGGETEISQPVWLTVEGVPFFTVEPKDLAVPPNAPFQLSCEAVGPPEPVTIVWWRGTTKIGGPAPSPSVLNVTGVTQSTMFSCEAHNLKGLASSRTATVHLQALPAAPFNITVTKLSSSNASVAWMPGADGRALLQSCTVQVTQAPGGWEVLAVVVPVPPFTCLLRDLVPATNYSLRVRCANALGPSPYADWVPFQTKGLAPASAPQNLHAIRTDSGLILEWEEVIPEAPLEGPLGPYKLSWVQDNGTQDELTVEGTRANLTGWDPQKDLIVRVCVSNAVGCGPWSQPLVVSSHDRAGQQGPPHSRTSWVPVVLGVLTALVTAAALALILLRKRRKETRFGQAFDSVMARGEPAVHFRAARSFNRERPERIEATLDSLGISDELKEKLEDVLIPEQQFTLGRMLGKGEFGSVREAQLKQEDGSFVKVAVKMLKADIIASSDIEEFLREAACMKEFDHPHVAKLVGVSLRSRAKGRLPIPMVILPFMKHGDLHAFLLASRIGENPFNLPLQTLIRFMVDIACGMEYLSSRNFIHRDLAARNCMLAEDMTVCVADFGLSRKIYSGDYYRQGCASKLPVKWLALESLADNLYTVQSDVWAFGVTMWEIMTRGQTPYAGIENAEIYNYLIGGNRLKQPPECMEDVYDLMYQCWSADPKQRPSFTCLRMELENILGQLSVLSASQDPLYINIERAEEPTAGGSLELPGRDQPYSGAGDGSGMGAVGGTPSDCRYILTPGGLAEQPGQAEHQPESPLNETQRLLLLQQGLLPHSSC

Structure (SMILES) | IC50 [nM]
COCCN1CCC(n2cc(-c3cnc4[nH]cc(-c5cccc(F)c5)c4c3)c(OC)n2)CC1 [Compound 29, 3-(3-fluorophenyl)-5-(3-methoxy-1-(1-(2-methoxyethyl)piperidin-4-yl)-1H-pyrazol-4-yl)-1H-pyrrolo[2,3-b]pyridine] | 51 to 150
CCc1[nH]c2ncc(-c3cn(C4CCN(C)CC4)nc3OC)cc2c1-c1cccc(F)c1 [Compound 24, 2-ethyl-3-(3-fluorophenyl)-5-(3-methoxy-1-(1-methylpiperidin-4-yl)-1H-pyrazol-4-yl)-1/-pyrrolo[2,3-b]pyridine] | 51 to 150
COc1ccc(-c2c[nH]c3ncc(-c4ccnn4C4CCN(C)CC4)cc23)cn1 [Compound 7, 3-(6-methoxypyridin-3-yl)-5-(1-(1-methylpiperidin-4-yl)-1H-pyrazol-5-yl)-1H-pyrrolo[2,3-b]pyridine] | > 500
CN1CCC(n2cc(-c3cnc4[nH]cc(-c5cccc(C(F)F)c5)c4c3)c(Cl)n2)CC1 [Compound 18, 5-(3-chloro-1-(1-methylpiperidin-4-yl)-1H-pyrazol-4-yl)-3-(3-(difluoromethyl)phenyl)-1H-pyrrolo[2,3-b]pyridine] | < 50
COc1ccc(-c2c[nH]c3ncc(-c4cnn(C5CCC(O)CC5)c4)cc23)cn1 (centres unmarked) [Compound 32, 4-(4-(3-(6-methoxypyridin-3-yl)-1H-pyrrolo[2,3-b]pyridin-5-yl)-1H-pyrazol-1-yl)cyclohexan-1-ol] | 151 to 501
CCc1[nH]c2ncc(-c3cn(C4CCN(C)CC4)nc3Cl)cc2c1-c1cccc(F)c1 [Compound 26, 5-(3-chloro-1-(1-methylpiperidin-4-yl)-1H-pyrazol-4-yl)-2-ethyl-3-(3-fluorophenyl)-1H-pyrrolo[2,3-b]pyridine] | 151 to 501
COc1nn(C2CCCN(C)CC2)cc1-c1cnc2[nH]cc(-c3cccc(F)c3)c2c1 (centres unmarked) [Compound 14, 3-(3-fluorophenyl)-5-(3-methoxy-1-(1-methylazepan-4-yl)-1H-pyrazol-4-yl)-1H-pyrrolo[2,3-b]pyridine] | < 50
CN1CCC(n2cc(-c3cnc4[nH]cc(-c5cccc(F)c5)c4c3)c(Cl)n2)CC1 [Compound 11, 5-(3-chloro-1-(1-methylpiperidin-4-yl)-1H-pyrazol-4-yl)-3-(3-fluorophenyl)-1H-pyrrolo[2,3-b]pyridine] | < 50
CCOc1nn(C2CCN(C)CC2)cc1-c1cnc2[nH]cc(-c3ccc(C(F)F)nc3)c2c1 [Compound 19, 3-(6-(difluoromethyl)pyridin-3-yl)-5-(3-ethoxy-1-(1-methylpiperidin-4-yl)-1H-pyrazol-4-yl)-1H-pyrrolo[2,3-b]pyridine] | < 50
COc1ccc(-c2c[nH]c3ncc(-c4cn(C5CCN(C)CC5)nc4OC)cc23)cn1 [Compound 2, 5-(3-methoxy-1-(1-methylpiperidin-4-yl)-1H-pyrazol-4-yl)-3-(6-methoxypyridin-3-yl)-1H-pyrrolo[2,3-b]pyridine] | < 50
COc1ccc(-c2c[nH]c3ncc(-c4cnn(C5CCN(C)CC5)c4C)cc23)cn1 [Compound 9, 3-(6-methoxypyridin-3-yl)-5-(5-methyl-1-(1-methylpiperidin-4-yl)-1H-pyrazol-4-yl)-1H-pyrrolo[2,3-b]pyridine] | > 500
COc1nn(C2CN(C)C2)cc1-c1cnc2[nH]cc(-c3cccc(F)c3)c2c1 [Compound 13, 3-(3-fluorophenyl)-5-(3-methoxy-1-(1-methylazetidin-3-yl)-1H-pyrazol-4-yl)-1H-pyrrolo[2,3-b]pyridine] | < 50
CCc1[nH]c2ncc(-c3cn(C4CCN(CC)CC4)nc3F)cc2c1-c1ccc(OC)nc1 [Compound 22, 2-ethyl-5-(1-(1-ethylpiperidin-4-yl)-3-fluoro-1H-pyrazol-4-yl)-3-(6-methoxypyridin-3-yl)-1H-pyrrolo[2,3-b]pyridine] | 51 to 150
CCOc1nn(C2CCN(C)CC2)cc1-c1cnc2[nH]cc(-c3ccc(OC)nc3)c2c1 [Compound 3, 5-(3-ethoxy-1-(1-methylpiperidin-4-yl)-1H-pyrazol-4-yl)-3-(6-methoxypyridin-3-yl)-1H-pyrrolo[2,3-b]pyridine] | < 50
COc1ccc(-c2c[nH]c3ncc(-c4cn(C5CCN(C)CC5)nc4F)cc23)cn1 [Compound 4, 5-(3-fluoro-1-(1-methylpiperidin-4-yl)-1H-pyrazol-4-yl)-3-(6-methoxypyridin-3-yl)-1H-pyrrolo[2,3-b]pyridine] | 51 to 150
COc1ccc(-c2c[nH]c3ncc(-c4ccn(C5CCN(C)CC5)n4)cc23)cn1 [Compound 6, 3-(6-methoxypyridin-3-yl)-5-(1-(1-methylpiperidin-4-yl)-1H-pyrazol-3-yl)-1H-pyrrolo[2,3-b]pyridine] | > 500
COc1nn(C2CCCN(C)C2)cc1-c1cnc2[nH]cc(-c3cccc(F)c3)c2c1 (centres unmarked) [Compound 15, 3-(3-fluorophenyl)-5-(3-methoxy-1-(1-methylpiperidin-3-yl)-1H-pyrazol-4-yl)-1H-pyrrolo[2,3-b]pyridine] | 151 to 501
COc1nn(C2CCN(C)CC2)cc1-c1cnc2[nH]cc(-c3ccnc(C(F)F)c3)c2c1 [Compound 20, 3-(2-(difluoromethyl)pyridin-4-yl)-5-(3-methoxy-1-(1-methylpiperidin-4-yl)-1H-pyrazol-4-yl)-1H-pyrrolo[2,3-b]pyridine] | < 50
COc1ccc(-c2c[nH]c3ncc(-c4cnn(C5CC(OC)C5)c4)cc23)cn1 (centres unmarked) [Compound 33, 5-(1-(3-methoxycyclobutyl)-1H-pyrazol-4-yl)-3-(6-methoxypyridin-3-yl)-1H-pyrrolo[2,3-b]pyridine] | > 500
CCc1[nH]c2ncc(-c3cn(C4CCN(C)CC4)nc3F)cc2c1-c1cccc(F)c1 [Compound 25, 2-ethyl-5-(3-fluoro-1-(1-methylpiperidin-4-yl)-1H-pyrazol-4-yl)-3-(3-fluorophenyl)-1H-pyrrolo[2,3-b]pyridine] | 51 to 150

Other lines, results leading:

IC50 [nM] | Structure (SMILES)
151 to 501 | COc1ccc(-c2c[nH]c3ncc(-c4cnn(C5CCN(C)CC5)c4)cc23)cn1 [Compound 1, 3-(6-methoxypyridin-3-yl)-5-(1-(1-methylpiperidin-4-yl)-1H-pyrazol-4-yl)-1H-pyrrolo[2,3-b]pyridine]
< 50 | COc1ccc(-c2c[nH]c3ncc(-c4cn(C5CCN(C)CC5)nc4Cl)cc23)cn1 [Compound 5, 5-(3-chloro-1-(1-methylpiperidin-4-yl)-1H-pyrazol-4-yl)-3-(6-methoxypyridin-3-yl)-1H-pyrrolo[2,3-b]pyridine]
> 500 | COc1nn(C2CCN(C(C)=O)CC2)cc1-c1cnc2[nH]cc(-c3cccc(F)c3)c2c1 [Compound 30, 1-(4-(4-(3-(3-fluorophenyl)-1H-pyrrolo[2,3-b]pyridin-5-yl)-3-methoxy-1H-pyrazol-1-yl)piperidin-1-yl)ethan-1-one]
> 500 | COc1ccc(-c2c[nH]c3ncc(-c4cc(CN5CCCC(O)C5)n(C)n4)cc23)cn1 (centres unmarked) [Compound 35, 1-((3-(3-(6-methoxypyridin-3-yl)-1H-pyrrolo[2,3-b]pyridin-5-yl)-1-methyl-1H-pyrazol-5-yl)methyl)piperidin-3-ol]
< 50 | COc1nn(C2CCN(C)CC2)cc1-c1cnc2[nH]cc(-c3cccc(C(F)F)c3)c2c1 [Compound 16, 3-(3-(difluoromethyl)phenyl)-5-(3-methoxy-1-(1-methylpiperidin-4-yl)-1H-pyrazol-4-yl)-1H-pyrrolo[2,3-b]pyridine]
151 to 501 | COc1ccc(-c2c[nH]c3ncc(-c4cnn(CC5CCN(C)CC5)c4)cc23)cn1 [Compound 31, 3-(6-methoxypyridin-3-yl)-5-(1-((1-methylpiperidin-4-yl)methyl)-1H-pyrazol-4-yl)-1H-pyrrolo[2,3-b]pyridine]
< 50 | COc1nn(C2CCN(C)CC2)cc1-c1cnc2[nH]cc(-c3cccc(F)c3)c2c1 [Compound 10, 3-(3-fluorophenyl)-5-(3-methoxy-1-(1-methylpiperidin-4-yl)-1H-pyrazol-4-yl)-1H-pyrrolo[2,3-b]pyridine]
51 to 150 | CN1CCC(n2cc(-c3cnc4[nH]cc(-c5cccc(C(F)F)c5)c4c3)c(F)n2)CC1 [Compound 17, 3-(3-(difluoromethyl)phenyl)-5-(3-fluoro-1-(1-methylpiperidin-4-yl)-1H-pyrazol-4-yl)-1H-pyrrolo[2,3-b]pyridine]
51 to 150 | CCc1[nH]c2ncc(-c3cn(C4CCN(C)CC4)nc3Cl)cc2c1-c1ccc(OC)nc1 [Compound 23, 5-(3-chloro-1-(1-methylpiperidin-4-yl)-1H-pyrazol-4-yl)-2-ethyl-3-(6-methoxypyridin-3-yl)-1H-pyrrolo[2,3-b]pyridine]
51 to 150 | COc1nn(C2CCN(C)CC2)cc1-c1cnc2[nH]c(Cl)c(-c3cccc(F)c3)c2c1 [Compound 28, 2-chloro-3-(3-fluorophenyl)-5-(3-methoxy-1-(1-methylpiperidin-4-yl)-1H-pyrazol-4-yl)-1H-pyrrolo[2,3-b]pyridine]
51 to 150 | CCc1[nH]c2ncc(-c3cn(C4CCN(C)CC4)nc3OC)cc2c1-c1ccc(OC)nc1 [Compound 21, 2-ethyl-5-(3-methoxy-1-(1-methylpiperidin-4-yl)-1H-pyrazol-4-yl)-3-(6-methoxypyridin-3-yl)-1H-pyrrolo[2,3-b]pyridine]
< 50 | COc1nn(C2CCN(C)C2)cc1-c1cnc2[nH]cc(-c3cccc(F)c3)c2c1 (centres unmarked) [Compound 12, 3-(3-fluorophenyl)-5-(3-methoxy-1-(1-methylpyrrolidin-3-yl)-1H-pyrazol-4-yl)-1H-pyrrolo[2,3-b]pyridine]
